Experimental data: US4129721A, “A-40104 antibiotics and process for production thereof” (priority 1977, dated 1978)
≈ marks a conversion by molar mass, not a printed value.

Tests used:
[1] = system: Streptococcus pyogenes; test: gradient-plate agar-dilution method; type: cell-based
[2] = acute toxicity, intraperitoneal injection in mice; conditions: mouse, in vivo, ip
Text: A special advantage of the A-40104 antibiotics is that they are relatively nontoxic.

[3] = system: Actinomyces israelii; test: standard agar-dilution test, anaerobic bacteria; type: cell-based; conditions: read after 2 hours incubation
Text: (§1) Table VIII summarizes the activity of A-40104 factor A, as determined by the standard agar-dilution test.
(§2) *MIC determined by the agar-dilution method. Endpoints were read after 2

[4] = system: Peptostreptococcus anaerobius; test: standard agar-dilution test, anaerobic bacteria; type: cell-based; conditions: 2 h
Text: as §1, §2

[5] = system: Bacteroides thetaiotaomicron; test: standard agar-dilution test, anaerobic bacteria; type: cell-based; conditions: 2 h
Text: as §1, §2

[6] = system: Clostridium septicum; test: standard agar-dilution test, anaerobic bacteria; type: cell-based; conditions: 2 h
Text: as §1, §2

[7] = system: Bacteroides melaninogenicus 1856/28; test: standard agar-dilution test, anaerobic bacteria; type: cell-based; conditions: Prevotella intermedia, read after 2 hours incubation
Text: as §1, §2

[8] = system: Eubacterium aerofacines; test: standard agar-dilution test, anaerobic bacteria; type: cell-based; conditions: 2 h
Text: as §1, §2

[9] = system: Streptococcus faecalis; test: standard agar-dilution test; type: cell-based; conditions: Enterococcus faecalis
Text: (§3) A-40104 factor A is an especially useful antibacterial agent. The minimal inhibitory concentrations (MIC's) at which A-40104 factor A inhibits selected bacteria, as determined by standard agar-dilution tests, are summarized in Table III.

[10] = system: Staphylococcus aureus 3074; test: standard agar-dilution test; type: cell-based
Text: as §3

[11] = system: Bordetella bronchiseptica; test: standard agar-dilution test; type: cell-based
Text: as §3

[12] = system: Staphylococcus aureus 3055; test: standard agar-dilution test; type: cell-based
Text: as §3

[13] = system: experimental bacterial infections; test: experimental bacterial infections in mice (general statement); type: in vivo
Method: When two doses of these compounds were administered to mice in illustrative infections, the activity observed was measured as an ED50 value [effective dose in mg./kg. to protect 50 percent of the test animals; see Warren Wick, et al., J. Bacteriol. 81, 233-235 (1961)].

[14] = system: Mycoplasma synoviae; test: in vitro broth-dilution studies, mycoplasma; type: cell-based
Text: (§4) The minimal inhibitory concentrations (MIC's) of A-40104 factor A; 19,20-dihydro-A-40104 factor A; and the tetraacetyl derivative of A-40104A against various mycoplasma species, as determined by in vitro broth-dilution studies, are summarized in Table IX.

[15] = system: Mycoplasma hyopneumoniae; test: in vitro broth-dilution studies, mycoplasma; type: cell-based
Text: as §4

[16] = system: Mycoplasma gallisepticum; test: in vitro broth-dilution studies, mycoplasma; type: cell-based
Text: as §4

[17] = system: Mycoplasma hyorhinis; test: in vitro broth-dilution studies, mycoplasma; type: cell-based
Text: as §4

For `C=CC1(C)CC(OC(=O)CO[C@@H]2OC[C@@H](O)[C@H](O)[C@H]2O)C2(C)C(C)CCC3(CCC(=O)C32)C(C)C1O` (stereo partly drawn) [A-40104 factor A, β,D-xylopyranosyl acetal derivative of pleuromutilin], the MIC [1] was < 0.01 µg/mL, the LD50 [2] was > 300 mg/kg and the MIC [3] was ≤ 0.5 µg/mL. It also gave an MIC [4] of 2 µg/mL (≈ 3.92 µM), an MIC [5] of 2 µg/mL (≈ 3.92 µM) and an MIC [6] of 8 µg/mL (≈ 15.7 µM). For the same compound, the MIC [7] was 4 µg/mL (≈ 7.83 µM), the MIC [8] was 16 µg/mL (≈ 31.3 µM) and the MIC [9] was < 0.5 µg/mL. For the same compound, the MIC [10] was < 0.5 µg/mL, the MIC [11] was < 0.5 µg/mL and the MIC [12] was < 0.5 µg/mL. The “in vivo antimicrobial activity” value [13] was “have shown in vivo antimicrobial activity”, the “minimal inhibitory concentration (MIC)” value [14] was ≤ 0.78 and the “minimal inhibitory concentration (MIC)” value [15] was 0.195. For the same compound, the “minimal inhibitory concentration (MIC)” value [16] was ≤ 0.78 and the “minimal inhibitory concentration (MIC)” value [17] was 1.56.
